Results as given in ChEMBL document CHEMBL4118250, “Discovery of Novel Pyrazole-Based Selective Aldosterone Synthase (CYP11B2) Inhibitors: A New Template to Coordinate the Heme-Iron Motif of CYP11B2” (J Med Chem, 2018).

Columns and labels:
[1] = Apparent passive permeability in human Caco2 cells; type: ADME, cell-based; details: Caco-2
[2] = Solubility of the compound; type: physicochemical
Cynomolgus monkey [3] = assay: Time at which maximum plasma concentration stays above in vitro human CYP11B2 IC50 in cynomolgus monkey at 3 mg/kg, po administered as single dose by LC-MS/MS analysis; type: ADME, organism-based, Macaca fascicularis; details: in vivo
Cynomolgus monkey [4] = assay: Time at which maximum plasma concentration stays below in vitro human CYP11B2 IC50 in cynomolgus monkey at 3 mg/kg, po administered as single dose by LC-MS/MS analysis; type: ADME, organism-based, Macaca fascicularis; details: in vivo
[5] = Tmax in cynomolgus monkey at 1 mg/kg, po administered as single dose by LC-MS/MS analysis; type: ADME, organism-based, Macaca fascicularis; details: in vivo

Cc1cc(C#N)ccc1-c1cnn2c1C[C@@H](O)C2
Papp [1]: 68.4 ×10⁻⁶ cm/s | solubility [2]: Soluble | Time (Cynomolgus monkey [3]): 8 h | Time (Cynomolgus monkey [4]): 24 h

Cc1cc(C#N)ccc1-c1cnn2c1C[C@@H](Oc1ncc(F)cn1)C2
Papp [1]: 62.3 ×10⁻⁶ cm/s | Tmax [5]: 4 h
